What was measured:
[1] = postoperative monitoring during the test period
[2] = clinical; details: female, human, in vivo, 100 mg
[3] = 10 mg morphine, end of the 24 hour delivery, mean; cited from earlier work
[4] = Example 2: transdermal morphine after elective coronary surgery, amount absorbed from the drug cell; details: after 48 hours, of the initial 100 mg
[5] = clinical; details: human, in vivo, 100 mg

| Structure (SMILES) | oxygen saturation [1] | concentration at 1 h [2] | concentration at 32 h [2] | concentration at 48 h [2] | amount of drug in the reservoir was reduced [3] | morphine dose in the drug cell found to be absorbed [4] | concentration at 0 h [5] | concentration at 1 h [5] | concentration at 2 h [5] | concentration at 3 h [5] | concentration at 3.5 h [5] | concentration at 4 h [5] |
| --- | --- | --- | --- | --- | --- | --- | --- | --- | --- | --- | --- | --- |
| CN1CC[C@]23c4c5ccc(O)c4O[C@H]2[C@@H](O)C=C[C@H]3[C@H]1C5 [Morphine] | remained normal | 8 ± 3.5 nM | 9.8 ± 3.8 nM | 8.5 ± 1.7 nM | 75 per cent | 32 ± 6 mg | – | – | – | – | – | – |
| CN1CC[C@]23c4c5ccc(O)c4O[C@H]2[C@@H](O)C=C[C@H]3[C@H]1C5 [Morphine acetate] | – | – | – | – | – | – | 0 nM | 53 nM | 112 nM | 115 nM | 154 nM | 162 nM |

Reference: patent EP0900076B1, “TRANSDERMAL DEVICE” (priority 1996, dated 1997)
